Here are results for seven molecules from patent US5401724A, “Therapeutic treatment of chronic myelogenous leukemia by administration of 2-chloro-2'-deoxy adenosine” (priority 1994, dated 1995).

By viability is commonly meant a per cent measure of how many cells are alive, often set against a control. Low values mean more harm to the cells, high ones less harm to the cells.

Data set [1] concerns delayed-type hypersensitivity. The data set is described as follows: Oral and IP effects on delayed-type hypersensitivity (DTH) to ovalbumin (Example 5, first study). The data set is classed as in vivo, guinea pig. The note with it: for inhibition of swelling compared to saline control: 24 and 48 hours after ovalbumin challenge, p <0.01 by Student's t-test. The procedure:
(§1) Delayed-type hypersensitivity (DTH) is a cell-mediated immune response that typically takes longer than 12 hours to develop. In the guinea pig, a DTH reaction to an antigen can be established by first immunizing the animal with the antigen in an adjuvant such as Freund's complete adjuvant. Subsequent intradermal injection of the antigen causes no change for at least 10 hours, after which there is a gradual increase in erythema and swelling in response to antigen injection. This response peaks about at about 24 hours after challenge, then gradually subsides.
(§2) Histologically, the inflammatory response is characterized by intense inundation of the site with mononuclear cells, of which about half are lymphocytes and the other half monocytes. DTH is therefore an indicator of a monocyte-mediated immune reaction.
In one study, guinea pigs were sensitized to ovalbumin in adjuvant. […] The animals were then injected with ovalbumin intradermally to elicit the DTH response. The mean area of the swelling size was measured for each animal (nine or ten animals were treated for each protocol).

The test system of data set [2] is CEM, wild type.
From the text: (§3) ^1 Concentration that produced 50 percent reduction in all numbers
For data set [3], the system named is CEM, Increased 5'-nucleoside.
From the text: as §3
For data set [4], the system named is DHL9, Increased ribonucleotide reduction.
From the text: as §3
Data set [5] has as its system Peripheral blood lymphocytes.
From the text: as §3
The subject of data set [6] is Monocytes.
From the text: as §3
The test system of data set [7] is SB (B cell line). The experiment in a line: cells. The note with it: Homo sapiens.
Method: (§4) Seven different cell lines were treated with varying concentrations of 2-chloro-9,1'-beta-2'-deoxy-2'-fluoro-D-arabinofuranosyladenine (CAFdA) to determine percent viability. CAFdA concentrations ranging from 0 to about 260 nM were used to treat each cell line in vitro.
Data set [8] deals with K562 (myeloid cell line). The experiment in a line: cells. The note with it: Homo sapiens.
Method: as §4
The test system of data set [9] is CEM (T cell line). The data set is described as follows: cells. The note with it: Homo sapiens.
From the text: (§5) Of the other five cell lines, two were T cell lines, one called CEM and the other Molt-4, and the remaining three were monocyte-like cell lines, designated THP-1, U937 and HL-60, respectively.
The test system of data set [10] is Molt-4 (T cell line). The data set is described as follows: cells. The note with it: Homo sapiens.
From the text: as §5
The test system of data set [11] is THP-1 (monocyte-like cell line). The experiment in a line: cells. The note with it: Homo sapiens.
From the text: as §5
Data set [12] relates to U937 (monocyte-like cell line). The experiment in a line: cells. The note with it: Homo sapiens, U-937.
From the text: as §5
Data set [13] relates to HL-60 (monocyte-like cell line). The data set is described as follows: cells. The note with it: Homo sapiens.
From the text: as §5
Data set [14] concerns CEM, wild type. The data set is described as follows: cells. The note with it: Homo sapiens, 120 h, read-out: ID50.
From the text: as §3
Data set [15] has as its system CEM, deoxyeytidine kinase deficient. The experiment in a line: cells. The note with it: Homo sapiens, 120 h, read-out: ID50.
From the text: as §3
Data set [16] concerns CEM, Increased 5'-nucleoside. The data set is described as follows: cells. The note with it: Homo sapiens, 120 h, read-out: ID50.
From the text: as §3
In data set [17] the test system is DHL9, Increased ribonucleotide reduction. The experiment in a line: cells. The note with it: Homo sapiens, 120 h, read-out: ID50.
From the text: as §3
The subject of data set [18] is Peripheral blood lymphocytes. The experiment in a line: cells. The note with it: Homo sapiens, Lymphocyte, 120 h, read-out: ID50.
From the text: as §3
Data set [19] concerns Monocytes. The experiment in a line: cells. The note with it: Homo sapiens, Monocyte, 120 h, read-out: ID50.
From the text: as §3
Data set [20] relates to chronic myelogenous leukemia. The note with it: cited from earlier work; for bone marrow cells with the translocation: marrow of treated patients.
Data set [21] has as its system delayed-type hypersensitivity. The experiment in a line: Effects of different dosages of 2-CdA on DTH to ovalbumin (Example 5, second study). It is filed as in vivo, guinea pig. The note with it: 5 mg/kg; 24 and 48 hours post-challenge; p <0.01 by Student's t-test. The procedure:
as §1, §2
Three days after treatment, the animals were challenged with ovalbumin intradermally. The areas of the skin lesions were measured at 6, 24, and 48 hours after challenge.

The conditions of data set [22]: pH 1, 37 degrees C.; cited from earlier work.

Regarding `Nc1nc(Cl)nc2c1ncn2[C@@H]1O[C@H](CO)[C@@H](O)[C@@H]1F` [CAFdA, 2-chloro-9,1'-beta-2'-deoxy-2'-fluoro-D-arabinofuranosyladenine], the “inhibition of swelling compared to saline control” value in data set [1] (1 mg/kg, intraperitoneal) is reported as “significant inhibition of swelling”; in [1] (1 mg/kg, oral), “significant inhibition of swelling”. Moreover, the “effectiveness when given orally” value in data set [1] (oral, without the protection of an enteric coating (2-CdA), preliminary in vivo studies) was “effective”. Further, the “CAFdA/2-CdA (ID50 ratio)” value is 3.1 in data set [2]; 2.1 in [3]; 15 in [4]; 1.9 in data set [5]; 2.1 in data set [6]. Further, the values for the viability at 0.26 µM in data set [7] and in [8] were 90% and 40%, respectively. Besides, the viability at 0.05 µM in [9], in [11] and in data set [13] was at most 60% throughout. Also, the viability at 0.06 µM in data set [9], in [10], in data set [11], in data set [12] and in [13] was under 20% in each case. In addition, the viability at 0.13 µM in data set [9], in [10], in [11], in data set [12] and in data set [13] was under 10% throughout. Also, the IC50 came to 67 nM in data set [14]; 716000 nM in data set [15]; 126 nM in data set [16]; 6000 nM in data set [17]; 18 nM in [18]; 47 nM in data set [19].

As for `NC(=O)NO` [hydroxyurea], in data set [20], the “bone marrow cells with the translocation” value was “still contains a predominance of cells with the translocation”.

Consider `CS(=O)(=O)OCCCCOS(C)(=O)=O` [busulfan], for which the “serious complication ("busulfan lung")” value in data set [20] (CML treatment) is “bronchopulmonary dysplasia with pulmonary fibrosis”. Also, the “bone marrow cells with the translocation” value in [20] was “still contains a predominance of cells with the translocation”.

On to α-interferon, for which, in data set [20], the “bone marrow cells with the translocation” value is on record as “sometimes loses the clone with the translocation”.

With `C[C@@H]1C[C@H]2[C@@H]3CCC4=CC(=O)C=C[C@]4(C)[C@@]3(F)[C@@H](O)C[C@]2(C)[C@@]1(O)C(=O)CO` [dexamethasone, reference compound], the “inhibition of swelling compared to saline control” value in [1] (5 mg/kg, intraperitoneal) is reported as “significant inhibition of swelling”; in data set [1] (5 mg/kg, oral), “significant inhibition of swelling”; in data set [21], “effective at inhibiting swelling”.

Take `Nc1ncnc2c1ncn2[C@@H]1O[C@H](CO)C[C@H]1F` [2'-fluoro-2',3'-dideoxyribose]: the stability entry in [22] was “stable”.

Consider `Nc1ncnc2c1ncn2[C@@H]1O[C@H](CO)C[C@@H]1F` [2'-fluoro-2',3'-dideoxyarabinose], for which, in [22], the stability entry was “stable”.
